From EP1082958A2, “5-HT1F agonists in chronic pain” (ELI LILLY AND COMPANY, priority 1996, dated 1998)

Key:
5-HT1E = target: T1, 5-HT1E (Homo sapiens, UniProt P28566); experiment: Radioligand binding ([3H]5-HT displacement) to cloned 5-HT1E receptor; settings: read-out: BINDING TO SEROTONIN (5-HT1) RECEPTOR SUBTYPES (Ki-nM) 5-HT1E, 4.5-5.5 nM [3H]5-HT, 37°C, Ki from IC50 by Cheng-Prusoff
T1 construct: expressed in transfected cells; host or cells: transfected Ltk- cells (by analogy 'as described supra')
Description: Membrane Preparation: Membranes were prepared from transfected Ltk- cells which were grown to 100% confluency. The cells were washed twice with phosphate-buffered saline, scraped from the culture dishes into 5 mL of ice-cold phosphate-buffered saline, and centrifuged at 200 x g for 5 minutes ^at 4°C. The pellet was resuspended in 2.5 mL of ice-cold Tris buffer (20 mM Tris HCl, pH=7.4 a^t […]) and homogenized with a Wheaton tissue grinder. The lysate was subsequently centrifuged at 200 x g for 5 minutes at 4°C to pellet large fragments which were discarded. The supernatant was collected and centrifuged at 40,000 x g for 20 minutes at 4°C. […] Protein concentrations were determined by the method of Bradford (Anal. Biochem., 72, 248-254 (1976)).
Radioligand Binding: [^3H-5-HT] binding was performed using slight modifications of the 5-HT1D assay conditions reported by Herrick-Davis and Titeler (J. Neurochem., 50, 1624-1631 (1988)) with the omission of masking ligands. […] Incubation times were 30 minutes for both saturation and displacement studies based upon initial investigations which determined equilibrium binding conditions. […] Binding data was analyzed by computer-assisted nonlinear regression analysis (Accufit and Accucomp, Lunden Software, Chagrin Falls, OH). […]

[1] = tested on: neuronal protein extravasation; experiment: Protein extravasation after electrical stimulation of the trigeminal ganglion (Evans Blue in dura); type: in vivo, Harlan Sprague-Dawley rats or guinea pigs; settings: 10 minutes before stimulation of the left trigeminal ganglion, dose inhibiting extravasation by 50%, approximated from dose-response curve, rats or guinea pigs (species not given)
Description: Harlan Sprague-Dawley rats (225-325 g) or guinea pigs from Charles River Laboratories (225-325 g) were anesthetized with sodium pentobarbital intraperitoneally (65 mg/kg or 45 mg/kg respectively) and placed in a stereotaxic frame (David Kopf Instruments) with the incisor bar set at - 3.5 mm for rats or -4.0 mm for guinea pigs. Following a midline sagital scalp incision, two pairs of bilateral holes were drilled through the skull (6 mm posteriorly, 2.0 and 4.0 mm laterally in rats; 4 mm posteriorly and 3.2 and 5.2 mm laterally in guinea pigs, all coordinates referenced to bregma). Pairs of stainless steel stimulating electrodes (Rhodes Medical Systems, Inc.) were lowered through the holes in both hemispheres to a depth of 9 mm (rats) or 10.5 mm (guinea pigs) from dura.
The femoral vein was exposed and a dose of the test compound was injected intravenously (1 mL/kg). Approximately 7 minutes later, a 50 mg/kg dose of Evans Blue, a fluorescent dye, was also injected intravenously. The Evans Blue complexed with proteins in the blood and functioned as a marker for protein extravasation. Exactly 10 minutes post-injection of the test compound, the left trigeminal ganglion was stimulated for 3 minutes at a current intensity of 1.0 mA (5 Hz, 4 msec duration) with a Model 273 potentiostat/ galvanostat (EG&G Princeton Applied Research).
Fifteen minutes following stimulation, the animals were killed and exsanguinated with 20 mL of saline. The top of the skull was removed to facilitate the collection of the dural membranes. The membrane samples were removed from both hemispheres, rinsed with water, and spread flat on microscopic slides. Once dried, the tissues were coverslipped with a 70% glycerol/water solution.
A fluorescence microscope (Zeiss) equipped with a grating monochromator and a spectrophotometer was used to quantify the amount of Evans Blue dye in each sample. An excitation wavelength of approximately 535 nm was utilized and the emission intensity at 600 nm was determined. The microscope was equipped with a motorized stage and also interfaced with a personal computer. This facilitated the computer-controlled movement of the stage with fluorescence measurements at 25 points (500 µm steps) on each dural sample. The mean and standard deviation of the measurements was determined by the computer.
The extravasation induced by the electrical stimulation of the trigeminal ganglion was an ipsilateral effect (i.e. occurs only on the side of the dura in which the trigeminal ganglion was stimulated). This allows the other (unstimulated) half of the dura to be used as a control. The ratio of the amount of extravasation in the dura from the stimulated side compared to the unstimulated side dura was calculated. […]

T1 sequence (P28566 whole entry, species assumed): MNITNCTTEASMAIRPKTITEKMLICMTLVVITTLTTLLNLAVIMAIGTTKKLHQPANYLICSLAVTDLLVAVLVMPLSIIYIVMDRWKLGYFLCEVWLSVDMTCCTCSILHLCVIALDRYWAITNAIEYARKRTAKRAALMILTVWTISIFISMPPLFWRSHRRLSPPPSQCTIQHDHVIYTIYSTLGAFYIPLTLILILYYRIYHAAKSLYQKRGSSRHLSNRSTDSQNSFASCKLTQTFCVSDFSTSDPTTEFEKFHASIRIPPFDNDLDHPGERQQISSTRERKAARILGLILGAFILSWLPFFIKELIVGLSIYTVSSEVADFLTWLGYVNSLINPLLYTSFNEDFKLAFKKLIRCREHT

Compound	Ki (5-HT1E)	Inhibition of Protein Extravasation, i.v. ID50 [1]
CNS(=O)(=O)Cc1ccc2[nH]cc(CCN(C)C)c2c1.O=C(O)CCC(=O)O [Compound I, 3-[2-(dimethylamino)ethyl]-N-methyl-1H-indole-5-methanesulfonamide butane-1,4-dioate (1:1)]	2520 nM	2.6e-08 mmol/kg
O=C(O)C(=O)O.Oc1ccc2[nH]cc(C3CCNCC3)c2c1 [Compound III, 5-hydroxy-3-(4-piperidinyl)-1H-indole oxalate]		8.9e-09 mmol/kg
CCN(CC)C1CCc2cccc(Cl)c2C1.Cl (centres unmarked) [Compound IV, 8-chloro-2-diethylamino-1,2,3,4-tetrahydronaphthalene hydrochloride]		1.2e-07 mmol/kg
CN(C)C1CCc2[nH]c3ccc(O)cc3c2C1 (centres unmarked) [Compound V, 6-hydroxy-3-dimethylamino-1,2,3,4-tetrahydrocarbazole]		8.7e-09 mmol/kg
